Tests used:
[1] = human gut metagenome, 24 h, 2 µM
[2] = human gut metagenome, 24 h, 2 µM; remark: listed apart in the source
[3] = (§1) The drug is tested on Z-021 corresponding to metagenome with ENA study accession number: PRJEB37062 and ENA sample accession number: ERS12561820 for biotransformation under anaerobic condition. The drug concentrations were measured over 9 timepoints collected between 0 and 24 hours of incubation by liquid-chromatography-coupled mass spectrometry (LC–MS); settings: 2 µM
[4] = (§2) The drug is tested on WLS-007 corresponding to human gut metagenome with ENA study accession number: PRJEB37062 and ENA sample accession number: ERS12561742 for biotransformation under anaerobic condition. The drug concentrations were measured over 9 timepoints collected between 0 and 24 hours of incubation by liquid-chromatography-coupled mass spectrometry (LC–MS); settings: 2 µM
[5] = as §2, with “WLS-170” for “WLS-007”, “ERS12561762” for “ERS12561742”; settings: 2 µM
[6] = human gut metagenome, 24 h, 2 µM; remark: listed apart in the source
[7] = human gut metagenome, 24 h, 2 µM; remark: listed apart in the source
[8] = as §2, with “Z-016” for “WLS-007”, “mouse” for “human”, “ERS12561815” for “ERS12561742”; settings: 2 µM
[9] = human gut metagenome, 24 h, 2 µM; remark: listed apart in the source
[10] = human gut metagenome, 24 h, 2 µM; remark: listed apart in the source
[11] = human gut metagenome, 24 h, 2 µM; remark: listed apart in the source
[12] = human gut metagenome, 24 h, 2 µM; remark: listed apart in the source
[13] = human gut metagenome, 24 h, 2 µM; remark: listed apart in the source
[14] = as §1, with “Z-023” for “Z-021”, “ERS12561822” for “ERS12561820”; settings: 2 µM
[15] = as §2, with “WLS-077” for “WLS-007”, “ERS12561750” for “ERS12561742”; settings: 2 µM
[16] = as §2, with “Z-019” for “WLS-007”, “rat” for “human”, “ERS12561818” for “ERS12561742”; settings: 2 µM
[17] = human gut metagenome, 24 h, 2 µM; remark: listed apart in the source
[18] = human gut metagenome, 24 h, 2 µM; remark: listed apart in the source
[19] = human gut metagenome, 24 h, 2 µM; remark: listed apart in the source
[20] = as §1, with “Z-010” for “Z-021”, “ERS12561810” for “ERS12561820”; settings: 2 µM
Also: call rule not given here.

Structure (SMILES): COC(=O)C(c1ccccc1)C1CCCCN1 (stereo not given) [METHYLPHENIDATE]
- Bacterial Biotransformation [1]: Compound NOT metabolized
- Bacterial Biotransformation [2]: Compound NOT metabolized
- Bacterial Biotransformation [3]: Compound metabolized
- Bacterial Biotransformation [4]: Compound NOT metabolized
- Bacterial Biotransformation [5]: Compound metabolized
- Bacterial Biotransformation [6]: Compound NOT metabolized
- Bacterial Biotransformation [7]: Compound NOT metabolized
- Bacterial Biotransformation [8]: Compound NOT metabolized
- Bacterial Biotransformation [9]: Compound NOT metabolized
- Bacterial Biotransformation [10]: Compound metabolized
- Bacterial Biotransformation [11]: Compound NOT metabolized
- Bacterial Biotransformation [12]: Compound metabolized
- Bacterial Biotransformation [13]: Compound metabolized
- Bacterial Biotransformation [14]: Compound metabolized
- Bacterial Biotransformation [15]: Compound NOT metabolized
- Bacterial Biotransformation [16]: Compound NOT metabolized
- Bacterial Biotransformation [17]: Compound NOT metabolized
- Bacterial Biotransformation [18]: Compound NOT metabolized
- Bacterial Biotransformation [19]: Compound NOT metabolized
- Bacterial Biotransformation [20]: Compound NOT metabolized

Structure (SMILES): OCCN(CCO)c1nc(N2CCCCC2)c2nc(N(CCO)CCO)nc(N3CCCCC3)c2n1 [DIPYRIDAMOLE]
- Bacterial Biotransformation [1]: Compound metabolized
- Bacterial Biotransformation [2]: Compound metabolized
- Bacterial Biotransformation [3]: Compound metabolized
- Bacterial Biotransformation [4]: Compound metabolized
- Bacterial Biotransformation [5]: Compound metabolized
- Bacterial Biotransformation [6]: Compound metabolized
- Bacterial Biotransformation [7]: Compound metabolized
- Bacterial Biotransformation [8]: Compound NOT metabolized
- Bacterial Biotransformation [9]: Compound metabolized
- Bacterial Biotransformation [10]: Compound metabolized
- Bacterial Biotransformation [11]: Compound metabolized
- Bacterial Biotransformation [12]: Compound metabolized
- Bacterial Biotransformation [13]: Compound metabolized
- Bacterial Biotransformation [14]: Compound metabolized
- Bacterial Biotransformation [15]: Compound metabolized
- Bacterial Biotransformation [16]: Compound NOT metabolized
- Bacterial Biotransformation [17]: Compound metabolized
- Bacterial Biotransformation [18]: Compound metabolized
- Bacterial Biotransformation [19]: Compound NOT metabolized
- Bacterial Biotransformation [20]: Compound metabolized

Structure (SMILES): CCN(CC)C(=O)C1(c2ccccc2)CC1CN (stereo not given)
- Bacterial Biotransformation [1]: Compound NOT metabolized
- Bacterial Biotransformation [2]: Compound NOT metabolized
- Bacterial Biotransformation [3]: Compound NOT metabolized
- Bacterial Biotransformation [4]: Compound NOT metabolized
- Bacterial Biotransformation [5]: Compound metabolized
- Bacterial Biotransformation [6]: Compound NOT metabolized
- Bacterial Biotransformation [7]: Compound NOT metabolized
- Bacterial Biotransformation [8]: Compound NOT metabolized
- Bacterial Biotransformation [9]: Compound NOT metabolized
- Bacterial Biotransformation [10]: Compound NOT metabolized
- Bacterial Biotransformation [11]: Compound NOT metabolized
- Bacterial Biotransformation [12]: Compound NOT metabolized
- Bacterial Biotransformation [13]: Compound NOT metabolized
- Bacterial Biotransformation [14]: Compound NOT metabolized
- Bacterial Biotransformation [15]: Compound NOT metabolized
- Bacterial Biotransformation [16]: Compound NOT metabolized
- Bacterial Biotransformation [17]: Compound NOT metabolized
- Bacterial Biotransformation [18]: Compound NOT metabolized
- Bacterial Biotransformation [19]: Compound NOT metabolized
- Bacterial Biotransformation [20]: Compound NOT metabolized

Structure (SMILES): COc1cc2nc(N3CCN(C(=O)C4CCCO4)CC3)nc(N)c2cc1OC (stereo not given) [TERAZOSIN]
- Bacterial Biotransformation [1]: Compound metabolized
- Bacterial Biotransformation [2]: Compound NOT metabolized
- Bacterial Biotransformation [3]: Compound NOT metabolized
- Bacterial Biotransformation [4]: Compound metabolized
- Bacterial Biotransformation [5]: Compound NOT metabolized
- Bacterial Biotransformation [6]: Compound NOT metabolized
- Bacterial Biotransformation [7]: Compound NOT metabolized
- Bacterial Biotransformation [8]: Compound NOT metabolized
- Bacterial Biotransformation [9]: Compound metabolized
- Bacterial Biotransformation [10]: Compound metabolized
- Bacterial Biotransformation [11]: Compound NOT metabolized
- Bacterial Biotransformation [12]: Compound NOT metabolized
- Bacterial Biotransformation [13]: Compound NOT metabolized
- Bacterial Biotransformation [14]: Compound NOT metabolized
- Bacterial Biotransformation [15]: Compound NOT metabolized
- Bacterial Biotransformation [16]: Compound NOT metabolized
- Bacterial Biotransformation [17]: Compound NOT metabolized
- Bacterial Biotransformation [18]: Compound metabolized
- Bacterial Biotransformation [19]: Compound NOT metabolized
- Bacterial Biotransformation [20]: Compound metabolized

Structure (SMILES): CC(C)[C@H]1CC[C@H](C(=O)N[C@H](Cc2ccccc2)C(=O)O)CC1 [NATEGLINIDE]
- Bacterial Biotransformation [1]: Compound metabolized
- Bacterial Biotransformation [2]: Compound metabolized
- Bacterial Biotransformation [3]: Compound metabolized
- Bacterial Biotransformation [4]: Compound metabolized
- Bacterial Biotransformation [5]: Compound metabolized
- Bacterial Biotransformation [6]: Compound metabolized
- Bacterial Biotransformation [7]: Compound metabolized
- Bacterial Biotransformation [8]: Compound metabolized
- Bacterial Biotransformation [9]: Compound metabolized
- Bacterial Biotransformation [10]: Compound metabolized
- Bacterial Biotransformation [11]: Compound metabolized
- Bacterial Biotransformation [12]: Compound metabolized
- Bacterial Biotransformation [13]: Compound metabolized
- Bacterial Biotransformation [14]: Compound metabolized
- Bacterial Biotransformation [15]: Compound metabolized
- Bacterial Biotransformation [16]: Compound NOT metabolized
- Bacterial Biotransformation [17]: Compound metabolized
- Bacterial Biotransformation [18]: Compound metabolized
- Bacterial Biotransformation [19]: Compound metabolized
- Bacterial Biotransformation [20]: Compound metabolized

Structure (SMILES): CCN(CC)CCNC(=O)c1ccc(NC(C)=O)cc1 [ACECAINIDE]
- Bacterial Biotransformation [1]: Compound metabolized
- Bacterial Biotransformation [2]: Compound NOT metabolized
- Bacterial Biotransformation [3]: Compound NOT metabolized
- Bacterial Biotransformation [4]: Compound NOT metabolized
- Bacterial Biotransformation [5]: Compound metabolized
- Bacterial Biotransformation [6]: Compound NOT metabolized
- Bacterial Biotransformation [7]: Compound NOT metabolized
- Bacterial Biotransformation [8]: Compound NOT metabolized
- Bacterial Biotransformation [9]: Compound NOT metabolized
- Bacterial Biotransformation [10]: Compound NOT metabolized
- Bacterial Biotransformation [11]: Compound metabolized
- Bacterial Biotransformation [12]: Compound metabolized
- Bacterial Biotransformation [13]: Compound NOT metabolized
- Bacterial Biotransformation [14]: Compound NOT metabolized
- Bacterial Biotransformation [15]: Compound NOT metabolized
- Bacterial Biotransformation [16]: Compound NOT metabolized
- Bacterial Biotransformation [17]: Compound NOT metabolized
- Bacterial Biotransformation [18]: Compound NOT metabolized
- Bacterial Biotransformation [19]: Compound NOT metabolized
- Bacterial Biotransformation [20]: Compound NOT metabolized

Structure (SMILES): CC(=O)CCCCn1c(=O)c2c(ncn2C)n(C)c1=O [PENTOXIFYLLINE]
- Bacterial Biotransformation [1]: Compound metabolized
- Bacterial Biotransformation [2]: Compound NOT metabolized
- Bacterial Biotransformation [3]: Compound NOT metabolized
- Bacterial Biotransformation [4]: Compound NOT metabolized
- Bacterial Biotransformation [5]: Compound metabolized
- Bacterial Biotransformation [6]: Compound NOT metabolized
- Bacterial Biotransformation [7]: Compound NOT metabolized
- Bacterial Biotransformation [8]: Compound NOT metabolized
- Bacterial Biotransformation [9]: Compound NOT metabolized
- Bacterial Biotransformation [10]: Compound NOT metabolized
- Bacterial Biotransformation [11]: Compound metabolized
- Bacterial Biotransformation [12]: Compound metabolized
- Bacterial Biotransformation [13]: Compound NOT metabolized
- Bacterial Biotransformation [14]: Compound NOT metabolized
- Bacterial Biotransformation [15]: Compound NOT metabolized
- Bacterial Biotransformation [16]: Compound NOT metabolized
- Bacterial Biotransformation [17]: Compound NOT metabolized
- Bacterial Biotransformation [18]: Compound metabolized
- Bacterial Biotransformation [19]: Compound NOT metabolized
- Bacterial Biotransformation [20]: Compound NOT metabolized

Structure (SMILES): CN[C@H]1CC[C@@H](c2ccc(Cl)c(Cl)c2)c2ccccc21 [SERTRALINE]
- Bacterial Biotransformation [1]: Compound metabolized
- Bacterial Biotransformation [2]: Compound NOT metabolized
- Bacterial Biotransformation [3]: Compound metabolized
- Bacterial Biotransformation [4]: Compound metabolized
- Bacterial Biotransformation [5]: Compound metabolized
- Bacterial Biotransformation [6]: Compound NOT metabolized
- Bacterial Biotransformation [7]: Compound metabolized
- Bacterial Biotransformation [8]: Compound NOT metabolized
- Bacterial Biotransformation [9]: Compound metabolized
- Bacterial Biotransformation [10]: Compound NOT metabolized
- Bacterial Biotransformation [11]: Compound metabolized
- Bacterial Biotransformation [12]: Compound metabolized
- Bacterial Biotransformation [13]: Compound metabolized
- Bacterial Biotransformation [14]: Compound metabolized
- Bacterial Biotransformation [15]: Compound metabolized
- Bacterial Biotransformation [16]: Compound NOT metabolized
- Bacterial Biotransformation [17]: Compound NOT metabolized
- Bacterial Biotransformation [18]: Compound NOT metabolized
- Bacterial Biotransformation [19]: Compound metabolized
- Bacterial Biotransformation [20]: Compound metabolized

Structure (SMILES): CCCN(CCC)CCc1cccc2c1CC(=O)N2 [ROPINIROLE]
- Bacterial Biotransformation [1]: Compound metabolized
- Bacterial Biotransformation [2]: Compound NOT metabolized
- Bacterial Biotransformation [3]: Compound NOT metabolized
- Bacterial Biotransformation [4]: Compound NOT metabolized
- Bacterial Biotransformation [5]: Compound metabolized
- Bacterial Biotransformation [6]: Compound NOT metabolized
- Bacterial Biotransformation [7]: Compound NOT metabolized
- Bacterial Biotransformation [8]: Compound NOT metabolized
- Bacterial Biotransformation [9]: Compound NOT metabolized
- Bacterial Biotransformation [10]: Compound NOT metabolized
- Bacterial Biotransformation [11]: Compound metabolized
- Bacterial Biotransformation [12]: Compound metabolized
- Bacterial Biotransformation [13]: Compound NOT metabolized
- Bacterial Biotransformation [14]: Compound NOT metabolized
- Bacterial Biotransformation [15]: Compound NOT metabolized
- Bacterial Biotransformation [16]: Compound NOT metabolized
- Bacterial Biotransformation [17]: Compound NOT metabolized
- Bacterial Biotransformation [18]: Compound metabolized
- Bacterial Biotransformation [19]: Compound NOT metabolized
- Bacterial Biotransformation [20]: Compound NOT metabolized

— ChEMBL document CHEMBL5724914, “Linking interpersonal differences in gut microbiota composition and drug biotransformation activity” (2024)
